Data from US20230287003A1, “BCL6 INHIBITORS” (Cancer Research Technology Limited, priority 2018, published 2023).

Key:
[1] = target: human BCL6 BTB domain (Trx-6×His-BCL6) / BCOR-AF633 peptide (Homo sapiens (Human), UniProt P41182); test: HTRF assay; assay type: binding; details: for HTRF avg pIC50 (1 nM): 1 nM Trx-6×His-BCL6, 300 nM BCOR-AF633 peptide, 2 hours incubation; for IC50: read-out: IC50 in the HTRF assay
Experimental: The % inhibition at each concentration was calculated by normalising FRET ratio to the appropriate high (DMSO with all reagents) and low (DMSO without BCL6) controls.

[2] = target: BCL6-NCOR2(SMRT) corepressor protein-protein interaction (Homo sapiens (Human), UniProt P41182); test: NanoBRET cell assay; assay type: cell-based; details: read-out: NanoBRET cell avg pIC50 (converted)
Text: At 20 hr post-transfection, cells were collected, washed with PBS, and exchanged into media containing phenol red-free OptiMEM+4% FBS (Life Technology).

## O=c1c2c(c3cc(Nc4nc(N5C6COCC5CC(O)C6)ncc4Cl)ccc3n1CC1CC(F)(F)C1)N[C@@H](C1CC1)CCO2 (stereo partly drawn) [Example 5u, (R)-10-((5-chloro-2-((1R,5S,7S)-7-hydroxy-3-oxa-9-azabicyclo[3.3.1]nonan-9-yl)pyrimidin-4-yl)amino)-2-cyclopropyl-7-((3,3-difluorocyclobutyl)methyl)-1,2,3,4-tetrahydro-[1,4]oxazepino[2,3-c]quinolin-6(7H)-one]
[1]
  HTRF avg pIC50 (1 nM): 8.08
[2]
  IC50: 28.8 nM

## Cn1c(=O)c2c(c3cc(Nc4nc(N5C6COCC5CC(O)C6)ncc4Cl)ccc31)NC(C1CC1)C(F)(F)CO2 [Example 11a, 10-((5-chloro-2-((1R,5S,7s)-7-hydroxy-3-oxa-9-azabicyclo[3.3.1]nonan-9-yl)pyrimidin-4-yl)amino)-2-cyclopropyl-3,3-difluoro-7-methyl-1,2,3,4-tetrahydro-[1,4]oxazepino[2,3-c]quinolin-6(7H)-one]
[1]
  HTRF avg pIC50 (1 nM): 8.81
[2]
  IC50: 5.01 nM

## Cn1c(=O)c2c(c3cc(Nc4ccnc(Cl)c4C#N)ccc31)N[C@@H](C1CC1)CCS2(=O)=O [Example 1u, (R)-2-chloro-4-((2-cyclopropyl-7-methyl-5,5-dioxido-6-oxo-1,2,3,4,6,7-hexahydro-[1,4]thiazepino[2,3-c]quinolin-10-yl)amino)nicotinonitrile]
[1]
  HTRF avg pIC50 (1 nM): 8.15
[2]
  IC50: 3090 nM

## CC(C)C1CCOc2c(c3cc(Nc4ccnc(Cl)c4C#N)ccc3n(C)c2=O)N1 (stereo not drawn) [2-chloro-4-((2-isopropyl-7-methyl-6-oxo-1,2,3,4,6,7-hexahydro-[1,4]oxazepino[2,3-c]quinolin-10-yl)amino)nicotinonitrile]
[1]
  IC50: > 2500 nM

## C[C@@H]1CN(c2ncc(Cl)c(Nc3ccc4c(c3)c3c(c(=O)n4C)SCC[C@H](C4CC4)N3)n2)C[C@H](C)C1(F)F [Example 12m, (R)-10-((5-chloro-2-((3S,5R)-4,4-difluoro-3,5-dimethylpiperidin-1-yl)pyrimidin-4-yl)amino)-2-cyclopropyl-7-methyl-1,2,3,4-tetrahydro-[1,4]thiazepino[2,3-c]quinolin-6(7H)-one]
[1]
  HTRF avg pIC50 (1 nM): 6.84

## (R)-10-((5-chloro-2-((R)-4,4-difluoro-3- (hydroxymethyl)piperidin-1-yl)pyrimidin-4-yl)amino)-2- cyclopropyl-7-methyl-1,2,3,4-tetrahydro- [1,4]oxazepino[2,3-c]quinolin-6(7H)-one or (R)-10-((5-chloro- 2-((S)-4,4-difluoro-3-(hydroxymethyl)piperidin-1-yl)pyrimidin- 4-yl)amino)-2-cyclopropyl-7-methyl-1,2,3,4-tetrahydro- [1,4]oxazepino[2,3-c]quinolin-6(7H)-one [Example 15b]
[1]
  HTRF avg pIC50 (1 nM): 7.51

## Cn1c(=O)c2c(c3cc(Nc4ccnc(Cl)c4C#N)ccc31)NC(C1CC1)CO2 (stereo not drawn) [Example 1m, 2-chloro-4((2-cyclopropyl-6-methyl-5-oxo-2,3,5,6-tetrahydro-1H-[1,4]oxazino[2,3-c]quinolin-9-yl)amino)nicotinonitrile]
[1]
  HTRF avg pIC50 (1 nM): 6.20

## C[C@@H]1CN(c2ncc(Cl)c(Nc3ccc4c(c3)c3c(c(=O)n4C)OCC(F)(F)[C@H](C4CC4)N3)n2)CCO1 [Example 12s, (S)-10-((5-chloro-2-((R)-2-methylmorpholino)pyrimidin-4-yl)amino)-2-cyclopropyl-3,3-difluoro-7-methyl-1,2,3,4-tetrahydro-[1,4]oxazepino[2,3-c]quinolin-6(7H)-one]
[1]
  HTRF avg pIC50 (1 nM): 8.47

## Cn1c(=O)c2c(c3cc(Nc4nc(N5CCC(F)(F)[C@@H](O)C5)ncc4Cl)ccc31)N[C@@H](C1CC1)CCO2 (single isomer, unassigned) [Example 12z, (R)-10-((5-chloro-2-((S)-4,4-difluoro-3-hydroxypiperidin-1-yl)pyrimidin-4-yl)amino)-2-cyclopropyl-7-methyl-1,2,3,4-tetrahydro-[1,4]oxazepino[2,3-c]quinolin-6(7H)-one or (R)-10-((5-chloro-2((R)-4,4-difluoro-3-hydroxypiperidin-1-yl)pyrimidin-4-yl)amino)-2-cyclopropyl-7-methyl-1,2,3,4-tetrahydro-[1,4]oxazepino[2,3-c]quinolin-6(7H)-one]
[1]
  HTRF avg pIC50 (1 nM): 7.52

## C[C@H]1COC(=O)c2c(c3cc(Nc4nc(N5CC6CCC(C6)C5)ncc4Cl)ccc3n(C)c2=O)N1 [Example 8h, (2S)-10-((2-(3-azabicyclo[3.2.1]octan-3-yl)-5-chloropyrimidin-4-yl)amino)-2,7-dimethyl-2,3-dihydro-[1,4]oxazepino[6,5-c]quinoline-5,6(1H,7H)-dione]
[1]
  HTRF avg pIC50 (1 nM): 6.47

## Cn1c(=O)c2c(c3cc(Nc4nc(N5C6CCCC5CC6)ncc4Cl)ccc31)N[C@@H](C1CC1)COC2=O [Example 8j, (2S)-10-((2-(8-azabicyclo[3.2.1]octan-8-yl)-5-chloropyrimidin-4-yl)amino)-2-cyclopropyl-7-methyl-2,3-dihydro-[1,4]oxazepino[6,5-c]quinoline-5,6(1H,7H)-dione]
[1]
  HTRF avg pIC50 (1 nM): 6.65

## Cn1c(=O)c2c(c3cc(Nc4nc(N5CCc6ncnc(O)c6C5)ncc4Cl)ccc31)N[C@@H](C1CC1)C(F)(F)CO2 [Example 13a, (S)-10-((5-chloro-2-(4-hydroxy-7,8-dihydropyrido[4,3-d]pyrimidin-6(5H)-yl)pyrimidin-4-yl)amino)-2-cyclopropyl-3,3-difluoro-7-methyl-1,2,3,4-tetrahydro-[1,4]oxazepino[2,3-c]quinolin-6(7H)-one]
[1]
  HTRF avg pIC50 (1 nM): 8.68

## C[C@H]1CN(c2ncc(Cl)c(Nc3ccc4c(c3)c3c(c(=O)n4C)OCC[C@H](C4CC4)N3)n2)CCC1(F)F (single isomer, unassigned) [Example 14a, (R)-10-((5-chloro-2-((S)-4,4-difluoro-3-methylpiperidin-1-yl)pyrimidin-4-yl)amino)-2-cyclopropyl-7-methyl-1,2,3,4-tetrahydro-[1,4]oxazepino[2,3-c]quinolin-6(7H)-one or (R)-10-((5-chloro-2-((R)-4,4-difluoro-3-methylpiperidin-1-yl)pyrimidin-4-yl)amino)-2-cyclopropyl-7-methyl-1,2,3,4-tetrahydro-[1,4]oxazepino[2,3-c]quinolin-6(7M)-one]
[1]
  HTRF avg pIC50 (1 nM): 6.74

## C[C@H]1COC(=O)c2c(c3cc(Nc4ccnc(Cl)c4C#N)ccc3n(C)c2=O)N1 [Example 6a, (S)-2-chloro-4-((2,7-dimethyl-5,6-dioxo-1,2,3,5,6,7-hexahydro-[1,4]oxazepino[6,5-c]quinolin-10-yl)amino)nicotinonitrile]
[1]
  HTRF avg pIC50 (1 nM): 7.01

## (S)-10-((5-chloro-2-((1S,5R)-3-methyl-2-oxo-3,8- diazabicyclo[3.2.1]octan-8-yl)pyrimidin-4-yl)amino)-2-cyclopropyl- 3,3-difluoro-7-methyl-1,2,3,4-tetrahydro-[1,4]oxazepino[2,3-c]quinolin- 6(7H)-one and (S)-10-((5-chloro-2-((1R,5S)-3-methyl-2-oxo-3,8- diazabicyclo[3.2.1]octan-8-yl)pyrimidin-4-yl)amino)-2-cyclopropyl- 3,3-difluoro-7-methyl-1,2,3,4-tetrahydro- [1,4]oxazepino[2,3-c]quinolin-6(7H)-one [Example 13b]
[1]
  HTRF avg pIC50 (1 nM): 8.59

## Cn1c(=O)c2c(c3cc(Nc4ccnc(Cl)c4C#N)ccc31)NC(CC1CC1)CO2 (stereo not drawn) [2-chloro-4-((2-(cyclopropylmethyl)-6-methyl-5-oxo-2,3,5,6-tetrahydro-1H-[1,4]oxazino[2,3-c]quinolin-9-yl)amino)nicotinonitrile]
[1]
  IC50: > 2500 nM

## (S)-10-((5-chloro-2-((S)-4,4-difluoro-3- (hydroxymethyl)piperidin-1-yl)pyrimidin-4-yl)amino)-2-cyclopropyl- 3,3-difluoro-7-methyl-1,2,3,4-tetrahydro-[1,4]oxazepino[2,3-c]quinolin- 6(7H)-one or (S)-10-((5-chloro-2-((R)-4,4-difluoro-3- (hydroxymethyl)piperidin-1-yl)pyrimidin-4-yl)amino)-2-cyclopropyl- 3,3-difluoro-7-methyl-1,2,3,4-tetrahydro-[1,4]oxazepino[2,3-c]quinolin- 6(7H)-one [Example 12q]
[1]
  HTRF avg pIC50 (1 nM): 8.65

## C[C@@H]1CN(c2ncc(Cl)c(Nc3ccc4c(c3)c3c(c(=O)n4C)C(=O)OC[C@H](C4CC4)N3)n2)C[C@H](C)O1 [Example 8n, (S)-10-((5-chloro-2-((2S,6R)-2,6-dimethylmorpholino)pyrimidin-4-yl)amino)-2-cyclopropyl-7-methyl-2,3-dihydro-[1,4]oxazepino[6,5-c]quinoline-5,6(1H,7H)-dione]
[1]
  HTRF avg pIC50 (1 nM): 6.19

## Cn1c(=O)c2c(c3cc(Nc4ccnc(Cl)c4C#N)ccc31)NC(C(F)F)CCO2 (stereo not drawn) [Example 1p, 2-chloro-4-((2-(difluoromethyl)-7-methyl-6-oxo-1,2,3,4,6,7-hexahydro-[1,4]oxazepino[2,3-c]quinolin-10-yl)amino)nicotinonitrile]
[1]
  HTRF avg pIC50 (1 nM): 5.67

## CC1Nc2c(c(=O)n(C)c3ccc(Nc4ccnc(Cl)c4C#N)cc23)OCC12CC2 (stereo not drawn) [Example 1i, 2-chloro-4-((2′,7′-dimethyl-6′-oxo-1′,2′,6′,7′-tetrahydro-4′H-spiro[cyclopropane-1,3^′-[1,4]oxazepino[2,3-c]quinolin]-10^′-yl)amino)nicotinonitrile]
[1]
  HTRF avg pIC50 (1 nM): 5.97

## CC(=O)N1CC2CC(C1)CN(c1ncc(Cl)c(Nc3ccc4c(c3)c3c(c(=O)n4C)C(=O)OC[C@H](C)N3)n1)C2 [(2S)-10-((2-(7-acetyl-3,7-diazabicyclo[3.3.1]nonan-3-yl)-5-chloropyrimidin-4-yl)amino)-2,7-dimethyl-2,3-dihydro-[1,4]oxazepino[6,5-c]quinoline-5,6(1H,7H)-dione]
[1]
  IC50: > 2500 nM
